The values that follow come from US9763957B2, “Autotaxin inhibitors” (Novartis AG, priority 2013, dated 2017).

The structures appear in SMILES notation.

For this experiment, the target named is Recombinant human ATX (Homo sapiens (Human), UniProt Q13822). Put plainly: ATX inhibition assay (choline release, Amplex Red fluorescence). To be noted: ATX 10 nM, LPC 18:1 10 μM, 37° C., 20 min pre-incubation; mean of n≧2. The class given is biochemical. Summed up: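 Activity was taken from the slope of resorufin fluorescence (530/590 nm, read every 2 min for 40 min at 37 °C) produced by choline liberated from 10 μM oleoyl LPC.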
Take `Cc1nnc(Cc2cc(Cl)ccc2/C=C/C(=O)N2CCC(Cc3nnc(C)o3)CC2)o1` [Example 13, (E)-3-(4-Chloro-2-((5-methyl-1,3,4-oxadiazol-2-yl)methyl)phenyl)-1-(4-((5-methyl-1,3,4-oxadiazol-2-yl)methyl)piperidin-1-yl)prop-2-en-1-one]: the IC50 was 2360 nM.

Regarding `Cc1nnn(Cc2cc(C(F)(F)F)ccc2/C=C/C(=O)N2CCC[C@H]2C)n1` [Example 117, (R,E)-3-(2-((5-Methyl-2H-tetrazol-2-yl)methyl)-4-(trifluoromethyl)phenyl)-1-(2-methylpyrrolidin-1-yl)prop-2-en-1-one], the half-inhibitory concentration (IC50) was 263 nM.

On to `Cc1nnn(Cc2cc(Cl)ccc2/C=C/C(=O)N2CCC(CCNC(=O)c3c[nH]nn3)CC2)n1` [Example 145, (E)-N-(2-(1-(3-(4-Chloro-2-((5-methyl-2H-tetrazol-2-yl)methyl)phenyl)acryloyl)piperidin-4-yl)ethyl)-1H-1,2,3-triazole-4-carboxamide], for which the IC50 was determined as 13 nM.

For the molecule `Cc1nnn(Cc2cc(C(F)F)ccc2/C=C/C(=O)N2CCC(Cc3nnc(C)o3)CC2)n1` [Example 59, (E)-3-(4-(Difluoromethyl)-2-((5-methyl-2H-tetrazol-2-yl)methyl)phenyl)-1-(4-((5-methyl-1,3,4-oxadiazol-2-yl)methyl)piperidin-1-yl)prop-2-en-1-one], the IC50 was 21 nM.

Take `Cc1nnn(Cc2cc(Cl)ccc2/C=C/C(=O)N2CCN(Cc3noc(C)n3)C[C@H]2C)n1` [Example 104, (R,E)-3-(4-Chloro-2-((5-methyl-2H-tetrazol-2-yl)methyl)phenyl)-1-(2-methyl-4-((5-methyl-1,2,4-oxadiazol-3-yl)methyl)piperazin-1-yl)prop-2-en-1-one]: the IC50 stood at 3.9 nM.

With `Cc1nnn(Cc2cc(C(F)F)ccc2/C=C/C(=O)N2CCC(c3nnc(C)o3)CC2)n1` [Example 52, (E)-3-(4-(Difluoromethyl)-2-((5-methyl-2H-tetrazol-2-yl)methy)phenyl)-1-(4-(5-methyl-1,3,4-oxadiazol-2-yl)piperidin-1-yl)prop-2-en-1-one], the IC50 is 17 nM.

Consider `Cc1nnn(Cc2cc(Cl)ccc2/C=C/C(=O)N2CCN(Cc3nc4ccccc4n3C)CC2)n1` [Example 140.4, (E)-3-(4-Chloro-2-((5-methyl-2H-tetrazol-2-yl)methyl)phenyl)-1-(4-((1-methyl-1H-benzo[d]imidazol-2-yl)methyl)piperazin-1-yl)prop-2-en-1-one], for which the IC50 is 43 nM.

For the molecule `Cc1nnn(Cc2cc(Cl)ccc2/C=C/C(=O)N2CCC(CNC(=O)CCc3cc(O)no3)CC2)n1` [Example 147, (E)-N-((1-(3-(4-Chloro-2-((5-methyl-2H-tetrazol-2-yl)methyl)phenyl)acryloyl)piperidin-4-yl)methyl)-3-(3-hydroxyisoxazol-5-yl)propanamide], the IC50 amounted to 13 nM.

On to `Cc1nnn(Cc2cc(Cl)ccc2/C=C/C(=O)N2CC[C@@H](c3nnc(C)o3)C2)n1` [Example 7, (R,E)-3-(4-Chloro-2-((5-methyl-2H-tetrazol-2-yl)methyl)phenyl)-1-(3-(5-methyl-1,3,4-oxadiazol-2-yl)pyrrolidin-1-yl)prop-2-en-1-one], for which the IC50 is 140 nM.

With `COCC1CCN(C(=O)/C=C/c2ccc(Cl)cc2Cn2nnc(C)n2)CC1` [Example 49.24, (E)-3-(4-Chloro-2-((5-methyl-2H-tetrazol-2-yl)methyl)phenyl)-1-(4-(methoxymethyl)piperidin-1-yl)prop-2-en-1-one], the IC50 worked out at 45 nM.

In the case of `Cc1nnn(Cc2cc(Cl)ccc2/C=C/C(=O)N2CCCN(c3ncccn3)CC2)n1` [Example 49.25, (E)-3-(4-Chloro-2-((5-methyl-2H-tetrazol-2-yl)methyl)phenyl)-1-(4-(pyrimidin-2-yl)-1,4-diazepan-1-yl)prop-2-en-1-one], the IC50 turned out to be 10 nM.

In the case of `Cc1nnn(Cc2cc(Cl)ccc2/C=C/C(=O)N2CCC(n3nccn3)CC2)n1` [Example 22, (E)-1-(4-(2H-1,2,3-Triazol-2-yl)piperidin-1-yl)-3-(4-chloro-2-((5-methyl-2H-tetrazol-2-yl)methyl)phenyl)prop-2-en-1-one], the IC50 came to 26 nM.

`Cc1nnc(CC2CCN(C(=O)/C=C/c3ccc(Cl)cc3Cn3nccn3)CC2)o1` [Example 75, (E)-3-(2-((2H-1,2,3-Triazol-2-yl)methyl)-4-chlorophenyl)-1-(4-((5-methyl-1,3,4-oxadiazol-2-yl)methyl)piperidin-1-yl)prop-2-en-1-one]: the IC50 is 1440 nM.

Regarding `Cc1nnn(Cc2cc(F)c(F)cc2/C=C/C(=O)N2CCC(Cc3nnc(C)o3)CC2)n1` [Example 42, (E)-3-(4,5-Difluoro-2-((5-methyl-2H-tetrazol-2-yl)methyl)phenyl)-1-(4-((5-methyl-1,3,4-oxadiazol-2-yl)methyl)piperidin-1-yl)prop-2-en-1-one], the IC50 stood at 436 nM.

Turning to `Cc1nnn(Cc2cc(C(F)(F)F)ccc2/C=C/C(=O)N2CCC(N(C)S(=O)(=O)C3CC3)CC2)n1` [Example 112, (E)-N-Methyl-N-(1-(3-(2-((5-methyl-2H-tetrazol-2-yl)methyl)-4-(trifluoromethyl)phenyl)acryloyl)piperidin-4-yl)cyclopropanesulfonamide], the IC50 amounted to 14 nM.

As for `Cc1nnn(Cc2cc(C(F)(F)F)ccc2/C=C/C(=O)N2CCC[C@H]2CO)n1` [Example 133, (S,E)-1-(2-(Hydroxymethyl)pyrrolidin-1-yl)-3-(2-((5-methyl-2H-tetrazol-2-yl)methyl)-4-(trifluoromethyl)phenyl)prop-2-en-1-one], the IC50 came to 81 nM.

A word on the IC50: it is the midpoint of a concentration-inhibition curve.
